Values quoted from earlier work, collected in patent publication US20050089581A1, “Magnesium-containing compositions and methods for enhancing dehydroepiandrosterone levels” (priority 2003, published 2005).

Tests used:
[1] = tested on: platelet aggregation; settings: second week, 300 mg DHEA per day orally
[2] = tested on: human coxsackievirus B4 strain
[3] = second week, 300 mg DHEA per day orally
[4] = administration of DHEA, its esters, or salts thereof; W. Regelson et al.
[5] = tested on: DHEA levels; settings: oral administration

Compound	subjects with slower rate of platelet aggregation and need for higher arachidonic acid concentration to initiate aggregation [1]	mortality ([2]; infection with 100,000 plaque forming units/animal, about 90% mortality in infected animals without treatment) [%]	elevation in the number of antibody forming cells ([2]; within the animal, DHEA administered) [%]	mean serum DHEA-S level ([3]; DHEA group, baseline 316.2, placebo 260.5+/−56.7) [µg/dL]	mean serum DHEA ([3]; treated group, baseline 5.83+/−3.9, placebo 5.58+/−4.1) [ng/mL]	side effects [4]	effect on DHEA levels [5]
C[C@]12CCC(O)CC1=CC[C@@H]1[C@@H]2CC[C@]2(C)C(=O)CC[C@@H]12 (stereo partly shown) [DHEA, 3-hydroxyandrost-5-en-17-one]	Four of the five test subjects	37	80	1451.9 ± 56.7	28.7 ± 13.9	mild androgenic effects and hirsutism	
magnesium taurate							does not increase DHEA levels
